Here are results for 17 compounds from US8575193B2, “N-substituted tetrahydroisoquinoline/isoindoline hydroxamic acid compounds” (4SC AG, priority 2008, dated 2013).

Data set [1] can be described thus: Cellular cytotoxicity assay (Alamar Blue/Resazurin), HeLa. Format: cell-based. The settings on record: human, HeLa cells, 72 hours incubation, Resazurin, read-out: HeLa Cytotoxicity [pIC50] (converted). The procedure:
(§1) The anti-proliferative activity of the compounds as described herein, is evaluated with various solid and hematological cancer cell lines using the Alamar Blue (Resazurin) cell viability assay (O'Brien et al, Eur J Biochem 267, 5421-5426, 2000). Resazurin is reduced to the fluorescent resorufin by cellular dehydrogenase activity, correlating with viable, proliferating cells. Test compounds are dissolved as 20 mM solutions in dimethylsulfoxide (DMSO) and subsequently diluted in semi-logarithmic steps. The cancer cell lines are seeded into 96 well flat bottom plates at respective cell densities in a volume of 200 μl per well to allow continuous proliferation during the experiment. 24 hours after seeding 1 μl each of the compound dilutions is added into each well of the 96 well plate. Wells containing untreated control cells are filled with 200 μl DMEM medium containing 0.5% v:v DMSO. The cells are then incubated with the substances for 72 hours at 37° C. in a humidified atmosphere containing 5% carbon dioxide. To determine the viability of the cells, 20 μl of a Resazurin solution (Sigma; 90 mg/l) are added. After 4 hours incubation at 37° C. the fluorescence is measured at an extinction of 544 nm and an emission of 590 nm. For the calculation of the cell viability the emission value from untreated cells is set as 100% viability and the emission rates of treated cells are set in relation to the values of untreated cells. Viabilities are expressed as % values. The corresponding pIC50 values of the compounds for cytotoxic activity are determined from the concentration-effect curves by means of non-linear regression.
In general terms: Resazurin is reduced to fluorescent resorufin, in cell work by metabolically active cells.

A further data set concerns the target T1, rHDAC1 (Homo sapiens, UniProt Q13547).
T1 construct: FLAG; made in house
Description: rHDAC1 enzymatic assay (recombinant FLAG-HDAC1). Format: biochemical. The settings on record: FLAG-HDAC1 from HEK293; 6 μM Ac-NH-GGK(Ac)-AMC, 3 h at 30° C.; read-out: rHDAC1 [pIC50] (converted). The text has this: (§2) Human HDAC1 and HDAC6 fused with the FLAG epitope are stably expressed in HEK293 cells while human HDAC3 and HDAC8 fused with the FLAG epitope are overexpressed in baculo-virus infected insect (Sf21) cells. To ensure stability of FLAG-HDAC3 the SMRT protein is co-expressed in the corresponding insect cells. […] FLAG-HDAC3 and FLAG-HDAC8 are also purified by M2-agarose affinity chromatography after mass cultivation of the insect cells and cell lysis.
(§3) The HDAC enzyme activity assay is done as described by Wegener et al. (Chem. & Biol. 10, 61-68, 2003). Briefly 40 μl of a 1:100 dilution (=0.4 μl) nuclear HeLa extract (mixture of class I and II HDACs), 29 μl enzyme buffer (15 mM Tris HCl pH 8.1, 0.25 mM EDTA, 250 mM NaCl, 10% v:v glycerol) and 1 μl test compound are added to a well of a 96 well microtiter plate and reaction started by addition of 3 μl substrate (Ac-NH-GGK(Ac)-AMC; final concentration 25 μM and final volume […]). […] After incubation at room temperature for further 40 min, fluorescence is measured using a Wallac Victor 1420 multilabel counter (Ex 355 nm, Em 460 nm) for quantification of AMC (7-amino-4-methylcoumarin) generated by trypsine cleavage of the deacetylated peptide. […] The corresponding pIC50 values of the compounds for HDAC inhibitory activity are determined from the concentration-effect curves by means of non-linear regression (Graphpad Prism software).
(§4) The HDAC1, HDAC3 and HDAC6 enzymatic assays are done with slight modifications with recombinant FLAG-HDAC1 and FLAG-HDAC6 proteins isolated from HEK293 cell lysates or recombinant FLAG-HDAC3 isolated from insect cells, respectively. The HDAC8 enzymatic assay using recombinant FLAG-HDAC8 isolated from insect cells is done with a different substrate. About 4.5 ng/well FLAG-HDAC1 and 3.1 ng/well FLAG-HDAC6 (dependent on batches and specific activity) are incubated with 6 μM or 10 μM Ac-NH-GGK(Ac)-AMC substrate, respectively, for 3 h at 30° C. About 1.7 ng/well FLAG-HDAC3 is incubated with 6 μM Ac-NH-GGK(Ac)-AMC substrate for 2 h at 30° C., while approximately 130 ng/well FLAG-HDAC8 is incubated with 50 μM Ac-RHK(Ac)K(Ac)-AMC substrate for 3 h at 30° C. Termination of the reaction and all further steps are done as described for HeLa cell nuclear extracts as a source for HDAC enzymatic activity. The corresponding pIC50 values of the compounds for HDAC1, HDAC3, HDAC6 and HDAC8 inhibitory activity are determined from the concentration-effect curves by means of non-linear regression.

The target of another data set is T2, rHDAC3 (Homo sapiens, UniProt O15379).
T2 construct: FLAG; made in house; host or cells: baculovirus-infected Sf21 insect cells
The data set can be described thus: rHDAC3 enzymatic assay (recombinant FLAG-HDAC3). The class given is biochemical. The following applies: FLAG-HDAC3 from insect cells; 6 μM Ac-NH-GGK(Ac)-AMC, 2 h at 30° C.; read-out: rHDAC3 [pIC50] (converted).
Description: as §2, §3, §4

Data set [2] can be described thus: Cellular cytotoxicity assay (Alamar Blue/Resazurin), A549. The class given is cell-based. The following applies: human, A549 cells; A549, 72 hours incubation, Resazurin; read-out: A549 Cytotoxicity [pIC50] (converted). The procedure: as §1
A short description of data set [3]: Cellular cytotoxicity assay (Alamar Blue/Resazurin), RKOp21. The following applies: human, RKOp21 cells; RKOp21, 72 hours incubation, Resazurin; read-out: RKOp21 Cytotoxicity [pIC50] (converted). The class given is cell-based. The procedure: as §1

Each structure is given as a SMILES string. Counter-ions that a name gives are not always drawn.

T2 sequence (O15379 whole entry): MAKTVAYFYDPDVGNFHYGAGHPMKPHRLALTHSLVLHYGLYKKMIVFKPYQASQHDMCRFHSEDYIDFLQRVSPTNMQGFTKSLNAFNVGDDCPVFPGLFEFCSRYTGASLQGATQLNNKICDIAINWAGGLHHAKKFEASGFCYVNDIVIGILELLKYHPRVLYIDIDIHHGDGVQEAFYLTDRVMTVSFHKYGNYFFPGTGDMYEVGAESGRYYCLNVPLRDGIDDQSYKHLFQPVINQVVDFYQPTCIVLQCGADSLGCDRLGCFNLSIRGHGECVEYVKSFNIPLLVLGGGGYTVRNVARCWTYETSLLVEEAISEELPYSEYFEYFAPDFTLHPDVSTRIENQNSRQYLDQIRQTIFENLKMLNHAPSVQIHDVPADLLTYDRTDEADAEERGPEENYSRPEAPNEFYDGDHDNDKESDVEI
T2 sequence (Q9Y618 whole entry partner): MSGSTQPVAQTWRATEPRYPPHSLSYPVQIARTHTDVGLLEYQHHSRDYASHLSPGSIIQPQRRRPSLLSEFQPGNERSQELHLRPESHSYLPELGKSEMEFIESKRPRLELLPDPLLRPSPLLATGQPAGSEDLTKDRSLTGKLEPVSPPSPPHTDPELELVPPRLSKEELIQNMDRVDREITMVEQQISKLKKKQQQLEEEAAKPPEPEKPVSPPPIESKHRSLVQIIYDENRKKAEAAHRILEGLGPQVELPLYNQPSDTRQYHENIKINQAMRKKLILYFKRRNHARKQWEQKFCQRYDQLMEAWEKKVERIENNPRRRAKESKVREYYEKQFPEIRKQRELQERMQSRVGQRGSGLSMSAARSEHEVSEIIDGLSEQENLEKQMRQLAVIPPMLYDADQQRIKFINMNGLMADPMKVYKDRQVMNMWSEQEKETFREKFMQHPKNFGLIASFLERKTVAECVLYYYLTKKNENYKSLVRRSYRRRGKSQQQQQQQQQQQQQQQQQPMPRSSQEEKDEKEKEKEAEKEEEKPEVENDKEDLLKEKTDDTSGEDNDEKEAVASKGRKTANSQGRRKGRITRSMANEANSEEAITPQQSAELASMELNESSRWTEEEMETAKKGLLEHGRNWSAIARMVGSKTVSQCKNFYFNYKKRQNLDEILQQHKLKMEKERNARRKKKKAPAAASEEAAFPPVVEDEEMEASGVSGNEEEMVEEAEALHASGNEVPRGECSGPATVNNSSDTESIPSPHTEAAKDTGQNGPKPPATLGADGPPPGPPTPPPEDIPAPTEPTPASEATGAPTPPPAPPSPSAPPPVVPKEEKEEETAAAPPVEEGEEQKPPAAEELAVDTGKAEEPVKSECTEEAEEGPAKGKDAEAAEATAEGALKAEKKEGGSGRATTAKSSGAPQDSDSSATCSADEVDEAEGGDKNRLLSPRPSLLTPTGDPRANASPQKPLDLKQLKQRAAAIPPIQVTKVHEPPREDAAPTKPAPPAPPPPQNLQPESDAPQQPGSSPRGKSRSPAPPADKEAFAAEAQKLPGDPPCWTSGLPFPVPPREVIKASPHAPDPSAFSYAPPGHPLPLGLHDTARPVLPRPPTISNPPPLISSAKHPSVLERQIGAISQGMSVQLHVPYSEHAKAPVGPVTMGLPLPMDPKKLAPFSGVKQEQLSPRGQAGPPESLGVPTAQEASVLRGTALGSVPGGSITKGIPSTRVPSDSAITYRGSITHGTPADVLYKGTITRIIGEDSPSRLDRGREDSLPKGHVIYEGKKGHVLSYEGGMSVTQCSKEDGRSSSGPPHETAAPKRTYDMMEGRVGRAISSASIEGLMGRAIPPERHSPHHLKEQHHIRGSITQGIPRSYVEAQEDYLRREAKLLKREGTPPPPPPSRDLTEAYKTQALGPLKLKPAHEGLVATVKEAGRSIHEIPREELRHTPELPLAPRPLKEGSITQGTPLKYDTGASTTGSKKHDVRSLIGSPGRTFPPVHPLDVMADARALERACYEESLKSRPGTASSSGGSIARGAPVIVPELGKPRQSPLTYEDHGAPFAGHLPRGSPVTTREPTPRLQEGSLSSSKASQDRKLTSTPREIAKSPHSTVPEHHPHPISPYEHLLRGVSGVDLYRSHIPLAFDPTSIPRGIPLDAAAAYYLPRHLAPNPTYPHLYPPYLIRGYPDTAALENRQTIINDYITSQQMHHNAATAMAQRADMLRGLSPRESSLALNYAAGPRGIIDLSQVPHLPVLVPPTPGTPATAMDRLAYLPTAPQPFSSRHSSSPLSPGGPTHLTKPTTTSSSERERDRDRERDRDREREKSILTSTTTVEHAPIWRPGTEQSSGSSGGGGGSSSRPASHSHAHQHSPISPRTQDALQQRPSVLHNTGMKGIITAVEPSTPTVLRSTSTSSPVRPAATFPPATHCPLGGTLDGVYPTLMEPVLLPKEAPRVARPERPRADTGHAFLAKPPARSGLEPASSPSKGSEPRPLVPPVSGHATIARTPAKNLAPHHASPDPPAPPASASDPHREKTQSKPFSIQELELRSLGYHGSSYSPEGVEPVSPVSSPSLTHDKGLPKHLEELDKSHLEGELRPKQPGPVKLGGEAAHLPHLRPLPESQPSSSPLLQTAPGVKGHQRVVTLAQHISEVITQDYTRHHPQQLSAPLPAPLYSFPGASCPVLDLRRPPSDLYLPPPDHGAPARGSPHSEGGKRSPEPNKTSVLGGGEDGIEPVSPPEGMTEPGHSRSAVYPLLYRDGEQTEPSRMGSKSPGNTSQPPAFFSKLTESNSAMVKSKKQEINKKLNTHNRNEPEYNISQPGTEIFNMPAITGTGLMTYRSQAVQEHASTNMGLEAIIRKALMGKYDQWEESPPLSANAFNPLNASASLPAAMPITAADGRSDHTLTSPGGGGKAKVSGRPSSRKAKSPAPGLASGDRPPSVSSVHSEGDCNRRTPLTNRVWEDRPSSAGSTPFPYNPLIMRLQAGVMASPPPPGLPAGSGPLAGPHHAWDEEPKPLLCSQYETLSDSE
T1 sequence (Q13547 whole entry): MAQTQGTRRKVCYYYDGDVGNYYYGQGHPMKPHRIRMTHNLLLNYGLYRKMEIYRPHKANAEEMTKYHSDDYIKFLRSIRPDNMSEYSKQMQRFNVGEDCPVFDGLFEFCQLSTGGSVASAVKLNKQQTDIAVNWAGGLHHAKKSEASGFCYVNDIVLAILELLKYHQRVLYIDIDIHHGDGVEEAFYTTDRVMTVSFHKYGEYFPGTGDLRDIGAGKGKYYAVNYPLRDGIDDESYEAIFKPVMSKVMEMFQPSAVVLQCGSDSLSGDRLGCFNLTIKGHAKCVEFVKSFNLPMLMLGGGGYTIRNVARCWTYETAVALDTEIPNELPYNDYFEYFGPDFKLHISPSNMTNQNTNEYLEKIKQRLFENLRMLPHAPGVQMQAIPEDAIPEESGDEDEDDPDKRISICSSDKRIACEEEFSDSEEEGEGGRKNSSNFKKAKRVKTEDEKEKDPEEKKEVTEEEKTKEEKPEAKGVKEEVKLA

`O=C(NO)c1ccc2c(c1)CN(C(=O)Cc1ccccn1)CC2` [Example 21, N-Hydroxy-2-(pyridin-2-ylacetyl)-1,2,3,4-tetrahydroisoquinoline-7-carboxamide hydrochloride]: the IC50 at 72 h in data set [1] is 1 to 100 µM; in data set [2] it was more than 100 µM. The IC50 was 0.1 to 10 µM at rHDAC1 and 10 to 100 µM at rHDAC3.
Turning to `O=C(NO)c1ccc2c(c1)CCN(C(=O)Cc1c[nH]c3ccccc13)C2` [Example 1, N-Hydroxy-2-(indol-3-ylacetyl)-1,2,3,4-tetrahydroisoquinoline-6-carboxamide hydrochloride], the IC50 at 72 h in data set [1], in data set [2] and in data set [3] was 1 to 100 µM each time. The IC50 is 0.1 to 10 µM on rHDAC1 and 1 to 10 µM on rHDAC3.
As to `COc1ccc2[nH]c(C(=O)N3CCc4ccc(C(=O)NO)cc4C3)cc2c1` [Example 24, N-Hydroxy-2-[(5-methoxy-1H-indol-2-yl)carbonyl]-1,2,3,4-tetrahydroisoquinoline-7-carboxamide], the IC50 at 72 h in data set [1], in data set [2] and in data set [3] was 1 to 100 µM in each case. Besides, the IC50 at rHDAC1 was 0.1 to 10 µM; at rHDAC3 it was 1 to 10 µM.
Regarding `CNC(=O)N1CCc2cc(C(=O)NO)ccc2C1` [Example 4, N6-Hydroxy-N2-methyl-3,4-dihydroisoquinoline-2,6(1H)-dicarboxamide], the IC50 at 72 h in data set [1], in data set [2] and in data set [3] was more than 100 µM in each case. Also, the IC50 on rHDAC1 was 0.1 to 10 µM; on rHDAC3 it was 10 to 100 µM.
Consider `O=C(NO)c1ccc2c(c1)CCN(C(=O)CCc1cccnc1)C2` [Example 7, N-Hydroxy-2-(3-pyridin-3-ylpropanoyl)-1,2,3,4-tetrahydroisoquinoline-6-carboxamide hydrochloride], for which the IC50 at 72 h in data set [1] and in data set [2] was more than 100 µM throughout. Further, the IC50 at rHDAC1 and on rHDAC3 was 10 to 100 µM each time.
Regarding `CC(=O)N1CCc2cc(C(=O)NO)ccc2C1` [Example 12, 2-Acetyl-N-hydroxy-1,2,3,4-tetrahydroisoquinoline-6-carboxamide], the IC50 at 72 h in data set [1] and in data set [2] was more than 100 µM throughout. In addition, the IC50 at rHDAC1 and at rHDAC3 was 10 to 100 µM throughout.
As for `O=C(NO)c1ccc2c(c1)CN(C(=O)Cc1c[nH]c3ccccc13)CC2` [Example 18, N-Hydroxy-2-(1H-indol-3-ylacetyl)-1,2,3,4-tetrahydroisoquinoline-7-carboxamide], the IC50 at 72 h in data set [1] and in data set [2] was 1 to 100 µM in each case. Also, the IC50 on rHDAC1 is 0.1 to 10 µM; at rHDAC3 it was 1 to 10 µM.
`COCCCNC(=O)N1CCc2cc(C(=O)NO)ccc2C1` [Example 5, N6-Hydroxy-N2-(3-methoxypropyl)-3,4-dihydroisoquinoline-2,6(1H)-dicarboxamide]: the IC50 at 72 h in data set [1], in data set [2] and in data set [3] was more than 100 µM each time. Further, the values for the IC50 at rHDAC1 and at rHDAC3 were 0.1 to 10 µM and 10 to 100 µM, respectively.
As for `O=C(NO)c1ccc2c(c1)CCN(C(=O)C1CCC1)C2` [Example 3, 2-(Cyclobutylcarbonyl)-N-hydroxy-1,2,3,4-tetrahydroisoquinoline-6-carboxamide], the IC50 at 72 h was 1 to 100 µM in data set [1], more than 100 µM in data set [2] and more than 100 µM in data set [3]. Further, the figures for the IC50 at rHDAC1 and on rHDAC3 were 0.1 to 10 µM and 10 to 100 µM, respectively.
As for `CN(C)CCCC(=O)N1CCc2cc(C(=O)NO)ccc2C1` [Example 9, 2-[4-(Dimethylamino)butanoyl]-N-hydroxy-1,2,3,4-tetrahydroisoquinoline-6-carboxamide hydrochloride], the IC50 at 72 h was 1 to 100 µM in data set [1], 1 to 100 µM in data set [2] and more than 100 µM in data set [3]. The results for the IC50 at rHDAC1 and on rHDAC3 were 0.1 to 10 µM and 10 to 100 µM, respectively.
On to `O=C(NO)c1ccc2c(c1)CCN(C(=O)C1CCOC1)C2` (stereo not shown) [Example 13, N-Hydroxy-2-(tetrahydrofuran-3-ylcarbonyl)-1,2,3,4-tetrahydroisoquinoline-6-carboxamide], for which the IC50 at 72 h in data set [1], in data set [2] and in data set [3] was more than 100 µM throughout. In addition, the IC50 on rHDAC1 and on rHDAC3 was 10 to 100 µM each time.
For `COCCCOC(=O)N1CCc2cc(C(=O)NO)ccc2C1` [Example 6, 3-Methoxypropyl-6-(hydroxycarbamoyl)-3,4-dihydroisoquinoline-2(1H)-carboxylate], the IC50 at 72 h in data set [1], in data set [2] and in data set [3] was more than 100 µM throughout. The IC50 at rHDAC1 and on rHDAC3 was 10 to 100 µM each time.
`Cc1nccn1CC(=O)N1CCc2cc(C(=O)NO)ccc2C1` [Example 10, N-Hydroxy-2-[(2-methyl-1H-imidazol-1-yl)acetyl]-1,2,3,4-tetrahydroisoquinoline-6-carboxamide hydrochloride]: the IC50 at 72 h in data set [1] and in data set [2] was more than 100 µM in each case. For the same compound, the IC50 on rHDAC1 and on rHDAC3 was 10 to 100 µM throughout.
`O=C(NO)c1ccc2c(c1)CN(C(=O)Cc1cccnc1)CC2` [Example 19, N-Hydroxy-2-(pyridin-3-ylacetyl)-1,2,3,4-tetrahydroisoquinoline-7-carboxamide hydrochloride]: the figures for the IC50 at 72 h in data set [1] and in data set [2] were 1 to 100 µM and more than 100 µM, respectively. Further, the IC50 at rHDAC1 is 0.1 to 10 µM; at rHDAC3, 10 to 100 µM.
On to `Cc1ccc(C(=O)N2CCc3ccc(C(=O)NO)cc3C2)cc1` [Example 23, N-Hydroxy-2-(4-methylbenzoyl)-1,2,3,4-tetrahydroisoquinoline-7-carboxamide], for which the IC50 at 72 h in data set [1] and in data set [2] was 1 to 100 µM each time. Besides, the IC50 was 0.1 to 10 µM at rHDAC1 and 10 to 100 µM on rHDAC3.
In the case of `CC#CC(=O)N1CCc2ccc(C(=O)NO)cc2C1` [Example 17, 2-But-2-ynoyl-N-hydroxy-1,2,3,4-tetrahydroisoquinoline-7-carboxamide], the IC50 at 72 h in data set [1] is 1 to 100 µM; in data set [2], more than 100 µM. Moreover, the IC50 is 0.1 to 10 µM on rHDAC1 and 10 to 100 µM at rHDAC3.
For `O=C(NO)c1ccc2c(c1)CN(C(=O)NCCc1ccccc1)CC2` [Example 22, N7-Hydroxy-N2-(2-phenylethyl)-3,4-dihydroisoquinoline-2,7(1H)-dicarboxamide] the same measures were 1 to 100 µM, 1 to 100 µM, 0.1 to 10 µM and 1 to 10 µM.
